Our source for the IC50 and EC50 values is US10426762B2, “Inhibitors of hepatitis C virus polymerase” (COCRYSTAL DISCOVERY, INC., priority 2012, dated 2019).

SMILES strings stand for the structures.

What is called IC50 is the point on the concentration scale where inhibition reaches its midpoint. Higher therefore signals weaker potency. In general, EC50 refers to the concentration giving half of the maximal effect.

For experiment [1], the target named is T1, HCV1b NS5B polymerase delta 21 (Hepatitis C virus genotype 1b, UniProt P26663).
T1 construct: purified HCV1b NS5B polymerase delta 21
Put plainly: RNA-dependent RNA HCV NS5B (polymerase) assay and IC50 determination. In kind it is biochemical. On the procedure: Example 212—RNA-Dependent RNA HCV NS5B (Polymerase) Assay and IC50 Determination
In vitro RNA-dependent RNA polymerase activity was determined in a reaction mixture (50 μL) containing 50 mM Tris-HCl, pH 7.5, 5 mM MgCl2, 1 mM dithiothreitol, 0.5% Triton® X-100, 10 μM of UTP, 0.1-0.5 μCi of α-^32P UTP (Perkin Elmer Life Sciences), 1 μg of polyA:U16 (Midland Oligo), and 0.6 μg of purified HCV1b NS5B polymerase delta 21. Different concentrations of compounds were added to the reaction mixtures. The reaction was carried out at RT (23° C.) for 60 min and then stopped by the addition of 100 μL of 50 mM EDTA. The reaction mixtures were filtered through either a DE81 membrane or a positively charged nylon membrane, and the membranes were then extensively washed with 30 mM sodium citrate, pH 7.0 and 300 mM NaCl. The radiolabeled RNA products were quantitated using a Storm™ PhosphorImager™ (GE life Sciences). IC50 values were calculated using GraFit 6 and GraphPad Prism 5 from triplicate assays.

The next experiment has as its system HCV1b replicon. Put plainly: HCV replicon assay (Huh-7 cell line with HCV1b replicon containing luciferase reporter) and EC50 determination. In kind it is cell-based. The note with it: Hepatitis C virus, Huh-7 HCV1b replicon luciferase reporter, 72 hr, triplicate. On the procedure: Example 213—HCV Replicon Assay and EC50 Determination
The antiviral activity of compounds against hepatitis C virus was determined by a hepatitis C virus replicon reporter cell line developed by Bartenschlager (Lohmann et al., Science 1999, 285:110-113; Bartenschlager et al., Antiviral Res 2003, 60:91-102). This cell-based assay utilized a liver cell carcinoma (Huh-7) cell line stably transformed with an HCV1b replicon containing a luciferase reporter gene. Varied concentrations of compounds were added to the reporter cell line, and further incubated at 37° C. for 72 hr in DMEM supplemented with 10% FCS. The inhibitory effects of experimental compounds or the reference compound, interferon alpha (INFα), on HCV replication were measured by luciferase activity using the Britelite™ plus luminescence reporter gene kit (Perkin Elmer, Shelton, Conn.). The Britelite plus reagent was added to the 96-well plates containing the HCV reporter cells, and luminescence was measured within 15 min using a Wallac 1450 Microbeta® Trilux liquid scintillation counter. EC50 values were calculated using GraFit 6 and GraphPad Prism 5 from triplicate HCV replicon assays.

T1 sequence (P26663 2420-2989): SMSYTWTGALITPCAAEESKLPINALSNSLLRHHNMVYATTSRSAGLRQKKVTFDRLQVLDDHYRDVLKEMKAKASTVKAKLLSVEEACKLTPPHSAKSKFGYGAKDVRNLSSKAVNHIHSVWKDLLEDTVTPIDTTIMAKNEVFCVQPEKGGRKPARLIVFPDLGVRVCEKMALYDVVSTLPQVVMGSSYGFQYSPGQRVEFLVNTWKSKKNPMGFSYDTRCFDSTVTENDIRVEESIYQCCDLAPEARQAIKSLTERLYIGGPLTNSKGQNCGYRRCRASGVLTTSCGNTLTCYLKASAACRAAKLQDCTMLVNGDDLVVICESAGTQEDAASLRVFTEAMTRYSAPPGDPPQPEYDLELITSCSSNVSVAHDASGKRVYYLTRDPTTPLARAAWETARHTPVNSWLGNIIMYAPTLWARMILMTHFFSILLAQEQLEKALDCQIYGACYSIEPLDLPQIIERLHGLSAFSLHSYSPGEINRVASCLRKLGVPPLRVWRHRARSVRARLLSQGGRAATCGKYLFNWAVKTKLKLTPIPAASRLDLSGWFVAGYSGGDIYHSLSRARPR

On to `CC1CCC(C2=C(c3cc(-c4ccc(NC(=O)c5cscn5)cc4)sc3C(=O)O)CN(CC(O)CO)CC2)CC1` (stereo not shown) [Example 190, 3-(1-(2,3-dihydroxypropyl)-4-(4-methylcyclohexyl)-1,2,5,6-tetrahydropyridin-3-yl)-5-(4-(thiazole-4-carboxamido)phenyl)thiophene-2-carboxylic acid], for which the IC50 in experiment [1] is < 3 µM. The EC50 in the experiment with HCV1b replicon (Table 2) was < 3 µM.

With `CN1CCC(C2CCCCC2)=C(c2cc(-c3ccc(NC(=O)c4cscn4)cc3)sc2C(=O)O)C1` [Example 210, 3-(4-Cyclohexyl-1-methyl-1,2,5,6-tetrahydro-pyridin-3-yl)-5-{4-[(thiazole-4-carbonyl)-amino]-phenyl}-thiophene-2-carboxylic acid], the IC50 in experiment [1] was < 3 µM.

`COc1cc(-c2cc(C3=C(C4CCC(C)CC4)CN(C)CC3)c(C(=O)O)s2)ccc1NC(=O)c1cscn1` (stereo not shown) [Example 179, 5-(3-methoxy-4-(thiazole-4-carboxamido)phenyl)-3-(1-methyl-5-(4-methylcyclohexyl)-1,2,3,6-tetrahydropyridin-4-yl)thiophene-2-carboxylic acid]: the IC50 in experiment [1] was < 3 µM.

For `CN1CCC(c2cc(C#CC(C)(C)C)sc2C(=O)O)=C(C2CCCCC2)C1` [Example 211, 3-(5-Cyclohexyl-1-methyl-1,2,3,6-tetrahydro-pyridin-4-yl)-5-(3,3-dimethyl-but-1-ynyl)-thiophene-2-carboxylic acid], in experiment [1], the IC50 was < 3 µM.

`CN1CCC(C2CCC(F)(F)CC2)=C(c2cc(-c3ccc(NC(=O)c4cscn4)cc3)sc2C(=O)O)C1` [Example 200, 3-(4-(4,4-difluorocyclohexyl)-1-methyl-1,2,5,6-tetrahydropyridin-3-yl)-5-(4-(thiazole-4-carboxamido)phenyl)thiophene-2-carboxylic acid]: in experiment [1], the IC50 is < 3 µM. Besides, the EC50 in the experiment on HCV1b replicon (Table 1) fell in the range of 3 to 10 µM.

Take `Cc1cc(-c2cc(C3=C(C4CCC(C)CC4)CN(C)CC3)c(C(=O)O)s2)ccc1-c1cc2ncccn2n1` (stereo not shown) [Example 187, 5-(3-methyl-4-(pyrazolo[1,5-a]pyrimidin-2-yl)phenyl)-3-(1-methyl-5-(4-methylcyclohexyl)-1,2,3,6-tetrahydropyridin-4-yl)thiophene-2-carboxylic acid]: the IC50 in experiment [1] is < 3 µM.

Consider `CC1CCC(C2=C(c3cc(-c4ccc(NC(=O)c5cscn5)c(Cl)c4)sc3C(=O)O)CCN(C)C2)CC1` (stereo not shown) [Example 182, 5-(3-chloro-4-(thiazole-4-carboxamido)phenyl)-3-(1-methyl-5-(4-methylcyclohexyl)-1,2,3,6-tetrahydropyridin-4-yl)thiophene-2-carboxylic acid], for which the IC50 in experiment [1] was < 3 µM.

In the case of `COc1ccn2nc(-c3ccc(-c4cc(C5=C(C6CCC(C)CC6)CN(C)CC5)c(C(=O)O)s4)cc3)cc2n1` (stereo not shown) [Example 184, 5-(4-(5-methoxypyrazolo[1,5-a]pyrimidin-2-yl)phenyl)-3-(1-methyl-5-(4-methylcyclohexyl)-1,2,3,6-tetrahydropyridin-4-yl)thiophene-2-carboxylic acid], the IC50 in experiment [1] was < 3 µM.

With `CN1CCC(c2cc(-c3ccccc3)sc2C(=O)O)=C(C2CCCCCC2)C1` [Example 206, 3-(5-Cycloheptyl-1-methyl-1,2,3,6-tetrahydro-pyridin-4-yl)-5-phenyl-thiophene-2-carboxylic acid], the IC50 in experiment [1] was < 3 µM.

`CN1CCC(c2cc(-c3ccccc3)sc2C(=O)O)=C(c2ccc(Cl)cc2)C1` [Example 208, 3-[5-(4-Chloro-phenyl)-1-methyl-1,2,3,6-tetrahydro-pyridin-4-yl]-5-phenyl-thiophene-2-carboxylic acid]: the IC50 in experiment [1] was > 10 µM.

Take `CC1CCC(C2=C(c3cc(-c4ccc(NC(=O)c5cscn5)cc4)sc3C(=O)O)CCN(Cc3cnn(C)c3)C2)CC1` (stereo not shown) [Example 186, 3-(1-((1-methyl-1H-pyrazol-4-yl)methyl)-5-(4-methylcyclohexyl)-1,2,3,6-tetrahydropyridin-4-yl)-5-(4-(thiazole-4-carboxamido)phenyl)thiophene-2-carboxylic acid]: the concentration for half-maximal inhibition (IC50) in experiment [1] was < 3 µM.
